One block for each molecule: values may come before it.
System: 653999-131-R-J2-PDC complex spheroids, growth % test/control
Test: Anticancer human tumor 653999-131-R-J2-PDC patient-derived lung adenocarcinoma cell line growth inhibition [AhR]
Conditions: for IC50: curve of first compound; for viability, T/C: stronger effect = lower value
Outline: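 Complex tumor spheroids co-cultured with HUVEC and human MSC stroma; AhR antagonists tested in combination with standard-of-care and investigational agents. Top concentration at or near clinical Cmax (else 10 microM), half-log dilutions; growth expressed as percent test/control.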

[1] = second compound 0.1 µM, first compound 0.000316 µM
[2] = second compound 0.1 µM, first compound 0.001 µM
[3] = second compound 0.1 µM, first compound 0.00316 µM
[4] = second compound 0.1 µM, first compound 0.01 µM
[5] = second compound 0.1 µM, first compound 0.0316 µM
[6] = second compound 0.1 µM, first compound 0.1 µM
[7] = second compound 0.316 µM, first compound 0.000316 µM
[8] = second compound 0.316 µM, first compound 0.001 µM
[9] = second compound 0.316 µM, first compound 0.00316 µM
[10] = second compound 0.316 µM, first compound 0.01 µM
[11] = second compound 0.316 µM, first compound 0.0316 µM
[12] = second compound 0.316 µM, first compound 0.1 µM
[13] = second compound 1 µM, first compound 0.000316 µM
[14] = second compound 1 µM, first compound 0.001 µM
[15] = second compound 1 µM, first compound 0.00316 µM
[16] = second compound 1 µM, first compound 0.01 µM
[17] = second compound 1 µM, first compound 0.0316 µM
[18] = second compound 1 µM, first compound 0.1 µM
[19] = second compound 3.16 µM, first compound 0.000316 µM
[20] = second compound 3.16 µM, first compound 0.001 µM
[21] = second compound 3.16 µM, first compound 0.00316 µM
[22] = second compound 3.16 µM, first compound 0.01 µM
[23] = second compound 3.16 µM, first compound 0.0316 µM
[24] = second compound 3.16 µM, first compound 0.1 µM
[25] = second compound 10 µM, first compound 0.000316 µM
[26] = second compound 10 µM, first compound 0.001 µM
[27] = second compound 10 µM, first compound 0.00316 µM
[28] = second compound 10 µM, first compound 0.01 µM
[29] = second compound 10 µM, first compound 0.0316 µM
[30] = second compound 10 µM, first compound 0.1 µM
[31] = second compound 0.1 µM, first compound 0.00949 µM
[32] = second compound 0.1 µM, first compound 0.03 µM
[33] = second compound 0.1 µM, first compound 0.0949 µM
[34] = second compound 0.1 µM, first compound 0.3 µM
[35] = second compound 0.316 µM, first compound 0.00949 µM
[36] = second compound 0.316 µM, first compound 0.03 µM
[37] = second compound 0.316 µM, first compound 0.0949 µM
[38] = second compound 0.316 µM, first compound 0.3 µM
[39] = second compound 1 µM, first compound 0.00949 µM
[40] = second compound 1 µM, first compound 0.03 µM
[41] = second compound 1 µM, first compound 0.0949 µM
[42] = second compound 1 µM, first compound 0.3 µM
[43] = second compound 3.16 µM, first compound 0.00949 µM
[44] = second compound 3.16 µM, first compound 0.03 µM
[45] = second compound 3.16 µM, first compound 0.0949 µM
[46] = second compound 3.16 µM, first compound 0.3 µM
[47] = second compound 10 µM, first compound 0.00949 µM
[48] = second compound 10 µM, first compound 0.03 µM
[49] = second compound 10 µM, first compound 0.0949 µM
[50] = second compound 10 µM, first compound 0.3 µM
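Further: spheroids exposed to agents for seven days.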
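Wherever viability, T/C is given: 100% = DMSO vehicle control viability.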

IC50 (second compound 0.1 µM): > 100 nM
IC50 (second compound 0.316 µM): > 100 nM
IC50 (second compound 1 µM): > 100 nM
IC50 (second compound 3.16 µM): > 100 nM
IC50 (second compound 10 µM): > 100 nM
Structure (SMILES): Cn1ncnc1C1c2n[nH]c(=O)c3cc(F)cc(c23)NC1c1ccc(F)cc1 (stereo not given) + CC(CO)NC(=O)c1cc(-c2ccc(Cl)cc2)nn(-c2cnn(C)c2)c1=O
viability, T/C [1]: 104%
viability, T/C [2]: 99.5%
viability, T/C [3]: 109%
viability, T/C [4]: 101%
viability, T/C [5]: 102%
viability, T/C [6]: 91.9%
viability, T/C [7]: 111%
viability, T/C [8]: 98.8%
viability, T/C [9]: 97.1%
viability, T/C [10]: 96.3%
viability, T/C [11]: 87.2%
viability, T/C [12]: 102%
viability, T/C [13]: 105%
viability, T/C [14]: 103%
viability, T/C [15]: 102%
viability, T/C [16]: 106%
viability, T/C [17]: 95.5%
viability, T/C [18]: 96%
viability, T/C [19]: 99.2%
viability, T/C [20]: 107%
viability, T/C [21]: 114%
viability, T/C [22]: 102%
viability, T/C [23]: 97.2%
viability, T/C [24]: 100%
viability, T/C [25]: 106%
viability, T/C [26]: 105%
viability, T/C [27]: 103%
viability, T/C [28]: 97.1%
viability, T/C [29]: 94.8%
viability, T/C [30]: 93.2%

IC50 (second compound 0.1 µM): > 10000 nM
IC50 (second compound 0.316 µM): > 10000 nM
IC50 (second compound 1 µM): > 10000 nM
IC50 (second compound 3.16 µM): > 10000 nM
IC50 (second compound 10 µM): > 10000 nM
Structure (SMILES): COc1cc(Nc2ncc3c(n2)-c2ccc(Cl)cc2C(c2c(F)cccc2OC)=NC3)ccc1C(=O)O + Cc1ccccc1N=Nc1ccc(NC(=O)c2ccnn2C)c(C)c1
viability, T/C [5]: 87.8%
viability, T/C [6]: 74.9%
viability, T/C (second compound 0.1 µM, first compound 0.316 µM): 71.1%
viability, T/C (second compound 0.1 µM, first compound 1 µM): 58.2%
viability, T/C (second compound 0.1 µM, first compound 3.16 µM): 57.1%
viability, T/C (second compound 0.1 µM, first compound 10 µM): 64.3%
viability, T/C [11]: 93.4%
viability, T/C [12]: 70.9%
viability, T/C (second compound 0.316 µM, first compound 0.316 µM): 71.9%
viability, T/C (second compound 0.316 µM, first compound 1 µM): 67.3%
viability, T/C (second compound 0.316 µM, first compound 3.16 µM): 57.9%
viability, T/C (second compound 0.316 µM, first compound 10 µM): 60.1%
viability, T/C [17]: 81%
viability, T/C [18]: 74%
viability, T/C (second compound 1 µM, first compound 0.316 µM): 66.8%
viability, T/C (second compound 1 µM, first compound 1 µM): 62.2%
viability, T/C (second compound 1 µM, first compound 3.16 µM): 60.6%
viability, T/C (second compound 1 µM, first compound 10 µM): 53.8%
viability, T/C [23]: 83%
viability, T/C [24]: 62.8%
viability, T/C (second compound 3.16 µM, first compound 0.316 µM): 70.5%
viability, T/C (second compound 3.16 µM, first compound 1 µM): 61.2%
viability, T/C (second compound 3.16 µM, first compound 3.16 µM): 62.9%
viability, T/C (second compound 3.16 µM, first compound 10 µM): 54.6%
viability, T/C [29]: 80.2%
viability, T/C [30]: 66.9%
viability, T/C (second compound 10 µM, first compound 0.316 µM): 63.2%
viability, T/C (second compound 10 µM, first compound 1 µM): 71%
viability, T/C (second compound 10 µM, first compound 3.16 µM): 56.5%
viability, T/C (second compound 10 µM, first compound 10 µM): 54.4%

IC50 (second compound 0.1 µM): > 300 nM
IC50 (second compound 0.316 µM): > 300 nM
IC50 (second compound 1 µM): > 300 nM
IC50 (second compound 3.16 µM): > 300 nM
IC50 (second compound 10 µM): > 300 nM
Structure (SMILES): Nc1ncn(C2CC(O)C(CO)S2)c(=O)n1 (stereo not given) + CC(CO)NC(=O)c1cc(-c2ccc(Cl)cc2)nn(-c2cnn(C)c2)c1=O
viability, T/C (second compound 0.1 µM, first compound 0.000949 µM): 101%
viability, T/C (second compound 0.1 µM, first compound 0.003 µM): 117%
viability, T/C [31]: 111%
viability, T/C [32]: 103%
viability, T/C [33]: 97.3%
viability, T/C [34]: 84.8%
viability, T/C (second compound 0.316 µM, first compound 0.000949 µM): 106%
viability, T/C (second compound 0.316 µM, first compound 0.003 µM): 121%
viability, T/C [35]: 134%
viability, T/C [36]: 100%
viability, T/C [37]: 104%
viability, T/C [38]: 88.1%
viability, T/C (second compound 1 µM, first compound 0.000949 µM): 119%
viability, T/C (second compound 1 µM, first compound 0.003 µM): 115%
viability, T/C [39]: 110%
viability, T/C [40]: 103%
viability, T/C [41]: 110%
viability, T/C [42]: 84%
viability, T/C (second compound 3.16 µM, first compound 0.000949 µM): 121%
viability, T/C (second compound 3.16 µM, first compound 0.003 µM): 101%
viability, T/C [43]: 104%
viability, T/C [44]: 121%
viability, T/C [45]: 101%
viability, T/C [46]: 96.4%
viability, T/C (second compound 10 µM, first compound 0.000949 µM): 117%
viability, T/C (second compound 10 µM, first compound 0.003 µM): 120%
viability, T/C [47]: 127%
viability, T/C [48]: 127%
viability, T/C [49]: 116%
viability, T/C [50]: 103%

IC50 (second compound 0.1 µM): 766 nM
IC50 (second compound 0.316 µM): 771 nM
IC50 (second compound 1 µM): 814 nM
IC50 (second compound 3.16 µM): 1230 nM
IC50 (second compound 10 µM): > 3000 nM
Structure (SMILES): O=C(C=Cn1cnc(-c2cc(C(F)(F)F)cc(C(F)(F)F)c2)n1)NNc1cnccn1 + CC(CO)NC(=O)c1cc(-c2ccc(Cl)cc2)nn(-c2cnn(C)c2)c1=O
viability, T/C [31]: 103%
viability, T/C [32]: 110%
viability, T/C [33]: 76.1%
viability, T/C [34]: 59.7%
viability, T/C (second compound 0.1 µM, first compound 0.949 µM): 48.9%
viability, T/C (second compound 0.1 µM, first compound 3 µM): 45.1%
viability, T/C [35]: 109%
viability, T/C [36]: 98%
viability, T/C [37]: 71.3%
viability, T/C [38]: 59.7%
viability, T/C (second compound 0.316 µM, first compound 0.949 µM): 51.1%
viability, T/C (second compound 0.316 µM, first compound 3 µM): 40%
viability, T/C [39]: 95.8%
viability, T/C [40]: 103%
viability, T/C [41]: 86.1%
viability, T/C [42]: 61.1%
viability, T/C (second compound 1 µM, first compound 0.949 µM): 51.7%
viability, T/C (second compound 1 µM, first compound 3 µM): 42.8%
viability, T/C [43]: 114%
viability, T/C [44]: 105%
viability, T/C [45]: 96.1%
viability, T/C [46]: 64.2%
viability, T/C (second compound 3.16 µM, first compound 0.949 µM): 55.5%
viability, T/C (second compound 3.16 µM, first compound 3 µM): 43.6%
viability, T/C [47]: 111%
viability, T/C [48]: 101%
viability, T/C [49]: 86.5%
viability, T/C [50]: 65.6%
viability, T/C (second compound 10 µM, first compound 0.949 µM): 54%
viability, T/C (second compound 10 µM, first compound 3 µM): 54.4%

IC50 (second compound 0.1 µM): > 100 nM
IC50 (second compound 0.316 µM): > 100 nM
IC50 (second compound 1 µM): > 100 nM
IC50 (second compound 3.16 µM): > 100 nM
IC50 (second compound 10 µM): > 100 nM
Structure (SMILES): Cn1ncnc1C1c2n[nH]c(=O)c3cc(F)cc(c23)NC1c1ccc(F)cc1 (stereo not given) + Cc1ccccc1N=Nc1ccc(NC(=O)c2ccnn2C)c(C)c1
viability, T/C [1]: 106%
viability, T/C [2]: 84.6%
viability, T/C [3]: 102%
viability, T/C [4]: 92.3%
viability, T/C [5]: 99.9%
viability, T/C [6]: 98%
viability, T/C [7]: 94.3%
viability, T/C [8]: 111%
viability, T/C [9]: 104%
viability, T/C [10]: 95%
viability, T/C [11]: 91.5%
viability, T/C [12]: 92.8%
viability, T/C [13]: 103%
viability, T/C [14]: 96.7%
viability, T/C [15]: 104%
viability, T/C [16]: 108%
viability, T/C [17]: 93.3%
viability, T/C [18]: 95.6%
viability, T/C [19]: 93.4%
viability, T/C [20]: 105%
viability, T/C [21]: 106%
viability, T/C [22]: 94.9%
viability, T/C [23]: 101%
viability, T/C [24]: 103%
viability, T/C [25]: 86.2%
viability, T/C [26]: 104%
viability, T/C [27]: 106%
viability, T/C [28]: 95%
viability, T/C [29]: 109%
viability, T/C [30]: 87.3%

From PubChem BioAssay AID1919000 (Molecular Pharmacology Branch, DTP, NCI, 2023)
